Experimental findings from patent US9968609B2, “Sildenafil solutions and methods of making and using same” (Vigorous Solutions Ltd., priority 2014, dated 2018) are described below.

Counter-ions that a name gives are not always drawn.

This series in a line: Spectrophotometric absorbance at 228 nm before and after 0.22 micron filtration (Example 12). The class given is physicochemical. Particulars: 70% ethanol in water, organic solvent or mixture; as prepared in Example 1, 70% ethanol; read-out: concentration at which fully soluble. Here is the method: A UV-VIS Genesys 105 Thermo Scientific spectrophotometer was used for the assay. Samples were placed in a UV Kurette Halbmicro/UV Cuvette semi micro [Cat no: 759150] for reading.
Because the reference describes measurements at μg/ml concentrations, both the filtered and unfiltered 18 mg/ml solutions were diluted to 9 μg/ml and 12.5 μg/ml and measured again.

With `CCCc1nn(C)c2c(=O)[nH]c(-c3cc(S(=O)(=O)N4CCN(C)CC4)ccc3OCC)nc12` [sildenafil citrate], the solubility at 10 min is 18 mg/mL.
